Reference: publication PMC10721329, “Quisinostat is a brain-penetrant radiosensitizer in glioblastoma” (JCI Insight, 2023)
Values joined by “and” are separate entries in the source; they are usually repeats but may differ in a detail not shown here. Identical values can stand only once.

Experiments:
BT145 cells = test: Intracellular uptake of QST and level in media, with or without washout (LC-MS/MS); assay type: cell-based, human
Description: To further understand the kinetics of drug-target engagement in GSCs, we harvested media and BT145 cells at 0, 2, 6, 10, and 24 hours with or without removal of QST (75 nM). At each time point, we measured the intracellular drug levels and concentrations in the cell media. With continuous drug exposure (no washout), the intracellular levels of QST in BT145 increased throughout the incubation period, reaching equilibrium by 10 hours (Supplemental Figure 2A). […] By contrast, in washout experiments (performed 2 hours after spiking cell media with the drug), minimal QST levels were measured intracellularly after drug removal at all time points (Supplemental Figure 2B).
QST concentrations in specimens were measured using reverse-phase LC on the AB SCIEX QTRAP6500+ LC-MS/MS system by operating electrospray in the positive ion mode. For liquid chromatographic separation, gradient elution was performed using a Phenomenex Kinetex F5 100 Å column (100 × 2.1 mm, 2.6 μm). The initial composition of the mobile phase was 70% phase A (0.1% formic acid in water) and 30% phase B (0.1% formic acid in 1:1 acetonitrile/methanol) with a 0.35 mL/min flow rate. Gradient elution was achieved as follows: mobile phase (B) was maintained at 30% from 0 to 0.3 minutes, increased to 95% from 0.3 to 0.8 minutes, maintained at 95% from 0.8 to 2.5 minutes, and decreased to 30% from 2.5 to 2.8 minutes. The total run time was 3.5 minutes. The internal standard used in this study was D8-infigratinib. The retention times for QST and D8-infigratinib were 1.6 and 1.8 minutes, respectively. Mass-to-charge ratio transitions were as follows: 395.20 → 144.00 (QST) and 568.08 → 321.00 (D8-infigratinib). LC-MS/MS analysis was performed using an Analyst 1.7 Chromatographic Data System. See Supplemental Methods for detailed PK experiments. […]
Cell Media and Lysate Sample Preparation
Cell media and lysates were thawed at room temperature. An aliquot of 20 µL of cell media or lysate was transferred into a micro centrifuge tube followed by protein precipitation with 60 µL of IS-containing methanol precipitation solution. The mixture was vortex-mixed for 10 s and centrifuged at 12000 g at 4 °C for 10 min. A 50-µL aliquot of the supernatant was transferred to an autosampler vial, and 5 µL was injected into the LC-MS/MS system for […]

[1] = Stability in human plasma at 37°C; assay type: in vitro ADME; settings: for %stability in human plasma, mean / stability in human plasma, [QST], % of control: 37 C; for %stability in human plasma, mean: mean of 3; for stability in human plasma, [QST], % of control: single data points
Description: Hydroxamic acid–based compounds have been reported to display poor stability and high plasma clearance due to the presence of arylesterases and carboxylesterases in rodent blood ([34]). Therefore, we measured the stability of QST in mouse plasma and brain to determine whether drug degradation occurred during our sample preparations and equilibrium dialyses for the determination of unbound drug level (performed at 37°C). […] QST degradation was also observed in mouse brain homogenate (Figure 6B). However, perfusion of mice before brain collection prevented rapid drug degradation in the brain matrix. […] Degradation of QST can also be constrained if plasma and brain samples are processed at 4°C (Supplemental Figure 4A). All subsequent sample preparations were therefore performed on ice-cold baths to avoid degradation of QST in our PK analyses. […] The observed stability is probably due to the absence of esterases in human matrices, which are responsible for degradation of QST ([34]). Because we employed QST in several in vitro studies (Figures 1–4), the stability of the molecule was also tested in the cell media used to culture GSCs (neurobasal medium; see Methods).
Stability Study in Mouse Plasma, Mouse Brain, Human Plasma, Human Brain, and Neural […]
The stability of QST was determined in BALB/c mouse plasma, male nude athymic perfused and nonperfused mouse brain homogenate (1:9 w/v of PBS; pH 7.4), human brain (obtained from VRL Eurofins) homogenate (1:4 w/v of PBS; pH 7.4), pooled human plasma (Innovative Research), and neurobasal media. QST stock solutions (1 mM) were prepared in acetonitrile, subsequently diluted in a 40% methanol mixture, and added t o the matrices to make final concentrations of 100 nM or 10 nM. Then 50 or 30 µL of either plasma or brain homogenate containing QST were aliquoted into 1.5-mL microcentrifuge tubes (Eppendorf) and were incubated at either 4 °C or 37 °C for 0, 2, 4, 6, 12, or 24 hours (n = 3 at each time point). […]
Plasma and brain […]
homogenate samples were stored at −80 °C until LC-MS/MS analysis. […]

Cn1cc(CNCC2CCN(c3ncc(C(=O)NO)cn3)CC2)c2ccccc21 [QST, quisinostat]
time to equilibrium of intracellular QST level (BT145 cells; BT145, 75 nM QST, continuous exposure): ≤ 10 h | Average Cell uptake (BT145 cells; no washout, 2 hrs): 7.31 nmol/g protein | Media (BT145 cells; no washout, 2 hrs): 62.85 nM | Media at cell collection (BT145 cells; no washout, 2 hrs): 52.25 nM | Average Cell uptake (BT145 cells; no washout, 6 hrs): 10.61 nmol/g protein | Media (BT145 cells; no washout, 6 hrs): 67.45 nM | Media at cell collection (BT145 cells; no washout, 6 hrs): 45.30 nM | Average Cell uptake (BT145 cells; no washout, 10 hrs): 11.62 nmol/g protein | Media (BT145 cells; no washout, 10 hrs): 65.15 nM | Media at cell collection (BT145 cells; no washout, 10 hrs): 39.70 nM | Average Cell uptake (BT145 cells; no washout, 24 hrs): 11.78 nmol/g protein | Media (BT145 cells; no washout, 24 hrs): 64.10 nM | Media at cell collection (BT145 cells; no washout, 24 hrs): 30.75 nM | Average Cell uptake (BT145 cells; with washout, 0 hrs): 7.31 nmol/g protein | Media (BT145 cells; with washout, 0 hrs): 62.85 nM | Media at cell collection (BT145 cells; with washout, 0 hrs): 52.25 nM | Average Cell uptake (BT145 cells; with washout, 2 hrs): 2.58 nmol/g protein | Media (BT145 cells; with washout, 2 hrs): 64.35 nM | Media at cell collection (BT145 cells; with washout, 2 hrs): 3.665 nM | Average Cell uptake (BT145 cells; with washout, 6 hrs): 3.23 nmol/g protein | Media (BT145 cells; with washout, 6 hrs): 63.40 nM | Media at cell collection (BT145 cells; with washout, 6 hrs): 5.31 nM | Average Cell uptake (BT145 cells; with washout, 10 hrs): 2.72 nmol/g protein | Media (BT145 cells; with washout, 10 hrs): 66.40 nM | Media at cell collection (BT145 cells; with washout, 10 hrs): 5.605 nM | Average Cell uptake (BT145 cells; with washout, 24 hrs): 3.95 nmol/g protein | Media (BT145 cells; with washout, 24 hrs): 58.55 nM | Media at cell collection (BT145 cells; with washout, 24 hrs): 3.57 nM | %stability in human plasma, mean ([1]; 10 nM, 0 hrs): 100.0 % of control | stability in human plasma, [QST], % of control ([1]; 10 nM, 0 hrs): 96.2 % of control and 101.9 % of control | stability in human plasma, [QST], % of control ([1]; 10 nM, 2 hrs): 98.7 % of control and 101.4 % of control and 99.6 % of control | %stability in human plasma, mean ([1]; 10 nM, 6 hrs): 99.5 % of control | stability in human plasma, [QST], % of control ([1]; 10 nM, 6 hrs): 100.4 % of control and 102 % of control and 96.1 % of control | %stability in human plasma, mean ([1]; 10 nM, 24 hrs): 97.7 % of control | stability in human plasma, [QST], % of control ([1]; 10 nM, 24 hrs): 93.7 % of control and 94.6 % of control and 104.9 % of control | %stability in human plasma, mean ([1]; 100 nM, 0 hrs): 100.0 % of control | stability in human plasma, [QST], % of control ([1]; 100 nM, 0 hrs): 96.3 % of control and 100 % of control and 103.7 % of control | %stability in human plasma, mean ([1]; 100 nM, 2 hrs): 102.1 % of control | stability in human plasma, [QST], % of control ([1]; 100 nM, 2 hrs): 105.4 % of control and 102.2 % of control and 98.8 % of control | %stability in human plasma, mean ([1]; 100 nM, 6 hrs): 103.6 % of control | stability in human plasma, [QST], % of control ([1]; 100 nM, 6 hrs): 105.9 % of control and 102.8 % of control and 102 % of control | %stability in human plasma, mean ([1]; 100 nM, 24 hrs): 99.0 % of control | stability in human plasma, [QST], % of control ([1]; 100 nM, 24 hrs): 101.6 % of control and 97 % of control and 98.2 % of control | stability in human plasma ([1]; 37°C): completely stable
